≈ marks a conversion by molar mass, not a printed value. Calls of active or inactive are those of the source. No cut-off for these calls is given here. Non-standard residues stand in square brackets, D forms with d. Residues, ends and D or L forms follow the SMILES beside them. Gly(N(CH2)2(3-indolyl)) = O=C(O)CNCCc1c[nH]c2ccccc12; Nspe = C[C@H](NCC(=O)O)c1ccccc1; Nlys = NCCCCNCC(=O)O
Assays:
[1] = tested on: Escherichia coli; experiment: Antibacterial activity against Escherichia coli ATCC 25922 assessed as inhibition of bacterial growth incubated for 24 hrs by broth dilution method; assay type: functional
[2] = tested on: Staphylococcus aureus; experiment: Antibacterial activity against Staphylococcus aureus ATCC 25923 assessed as inhibition of bacterial growth incubated for 24 hrs by broth dilution method; assay type: functional
[3] = tested on: Erythrocyte; experiment: Hemolytic activity in male Sprague-Dawley rat erythrocytes assessed as concentration required for 10% hemolysis incubated for 1 hr by absorbance based method; assay type: toxicity, cell-based
[4] = Hemolytic activity in male Sprague-Dawley rat erythrocytes assessed as concentration required for 50% hemolysis incubated for 1 hr by absorbance based method; assay type: toxicity, cell-based, Erythrocyte
[5] = tested on: HEK293; experiment: Cytotoxicity against HEK293 cells assessed as cell killing incubated for 24 hrs by MTS assay; assay type: toxicity, cell-based; settings: human, hek293, 24 h
[6] = tested on: Escherichia coli; experiment: Antibacterial activity against carbapenem-resistant Escherichia coli NMS11035 harboring extended-spectrum beta-lactamase assessed as inhibition of bacterial growth incubated for 24 hrs by broth dilution method; assay type: functional
[7] = tested on: Escherichia coli; experiment: Antibacterial activity against colistin-resistant Escherichia coli NMS12 harboring extended-spectrum beta-lactamase assessed as inhibition of bacterial growth incubated for 24 hrs by broth dilution method; assay type: functional
[8] = tested on: Acinetobacter baumannii; experiment: Antibacterial activity against carbapenem-resistant Acinetobacter baumannii NMS1707 harboring extended-spectrum beta-lactamase assessed as inhibition of bacterial growth incubated for 24 hrs by broth dilution method; assay type: functional
[9] = tested on: Klebsiella pneumoniae; experiment: Antibacterial activity against carbapenem-resistant Klebsiella pneumoniae NMS118 harboring extended-spectrum beta-lactamase assessed as inhibition of bacterial growth incubated for 24 hrs by broth dilution method; assay type: functional
[10] = tested on: Cell membrane; experiment: Disruption of inner membrane in Escherichia coli ATCC 25922 assessed as increase in absorbance incubated for 1 hr by ONPG assay; assay type: cell membranes; settings: dose 0-25 µM
[11] = tested on: DNA; experiment: Binding affinity to pUC19 plasmid DNA (unknown origin) assessed as smearing and retardation of DNA bands at 25 uM incubated for 2 hrs by agarose gel imaging method; assay type: nucleic-acid assay
[12] = tested on: Escherichia coli; experiment: Induction of lipid peroxidation in Escherichia coli ATCC 25922 assessed as increase in MDA level at 10 uM incubated for 2 hrs by TBARS assay; assay type: functional, organism-based
[13] = tested on: Escherichia coli; experiment: Induction of lipid peroxidation in Escherichia coli ATCC 25922 assessed as increase in green fluorescence at 12.5 uM incubated for 1 hrs by BODIPY 581/591 C11 dye based confocal microscopic analysis; assay type: functional, organism-based
[14] = tested on: Escherichia coli; experiment: Induction of lipid peroxidation in Escherichia coli ATCC 25922 at 12.5 uM incubated for 1 hrs by BODIPY 581/591 C11 dye based flow cytometry analysis; assay type: functional, organism-based
[15] = tested on: Streptococcus pneumoniae; experiment: Antibacterial activity against catalase-negative Streptococcus pneumoniae KCMM42691 assessed as inhibition of bacterial growth incubated for 24 hrs by broth dilution method; assay type: functional
[16] = tested on: Streptococcus pneumoniae; experiment: Antibacterial activity against catalase-negative Streptococcus pneumoniae KCMM42691 assessed as cell killing at 12.5 uM incubated for 4 to 16 hrs by CFU assay; assay type: functional, organism-based; settings: time 4-16 hrs
[17] = Cytotoxicity against mouse RAW264.7 cells assessed as cell viability at 10 uM incubated for 24 hrs by […] relative to control; assay type: toxicity, cell-based; settings: read-out: Activity
[18] = Cytotoxicity against mouse RAW264.7 cells assessed as cell viability at 20 uM incubated for 24 hrs by […] relative to control; assay type: toxicity, cell-based; settings: read-out: Activity
[19] = tested on: RAW264.7; experiment: Antiinflammatory activity in LPS-stimulated mouse RAW264.7 cells assessed as reduction in IL-6 production at 10 uM incubated for 16 hrs by ELISA relative to control; assay type: functional; set-up: scale not given: the % may be the effect or the level left
[20] = tested on: RAW264.7; experiment: Antiinflammatory activity in LPS-stimulated mouse RAW264.7 cells assessed as reduction in IL-1beta production at 10 uM incubated for 16 hrs by ELISA relative to control; assay type: functional; set-up: scale not given: the % may be the effect or the level left
[21] = tested on: HEK-Blue hTLR7; experiment: Inhibition of TLR4-mediated inflammatory signaling in LPS-stimulated HEK-Blue […] cells assessed as reduction in SEAP activity at 20 uM preincubated for 1 hr followed by LPS stimulation and measured after 16 hrs by ELISA relative to control; assay type: cell-based; settings: Homo sapiens, time 17.0 hrs
[22] = Toxicity in female ICR mouse assessed as dilatation of interstitial blood capillaries in kidney at 5 mg/kg, ip administered four doses for 12 hrs and measured 24 hrs post last dose by H and E staining based light microscopic analysis; assay type: organism-based; settings: in vivo, 36 h
[23] = Acute toxicity in female ICR mouse assessed as animal survival at 5 mg/kg, ip administered four doses for 12 hrs; assay type: organism-based; settings: in vivo
[24] = tested on: Escherichia coli; experiment: (§1) Antibacterial activity against Escherichia coli K1 infected in female ICR mouse model of septic shock assessed as reduction in endotoxin level at 5 mg/kg, ip pretreated for 1 hr followed by bacteria addition and further treated with 3 doses of compound every 4 hrs relative to control; assay type: functional; set-up: scale not given: the % may be the effect or the level left; settings: time 9 hrs
[25] = tested on: Escherichia coli; experiment: (§2) Antibacterial activity against Escherichia coli K1 infected in female ICR mouse model of septic shock assessed as reduction in IL-6 level in serum at 5 mg/kg, ip pretreated for 1 hr followed by bacteria addition and further treated with 3 doses of compound every 4 hrs by ELISA relative to control; assay type: functional; set-up: scale not given: the % may be the effect or the level left; settings: time 9 hrs
[26] = tested on: Escherichia coli; experiment: as §2, with “IL-1beta” for “IL-6”; assay type: functional; set-up: scale not given: the % may be the effect or the level left; settings: time 9 hrs
[27] = tested on: Escherichia coli; experiment: Antibacterial activity against Escherichia coli K1 infected in female ICR mouse model of septic shock assessed as reduction in ALT level in serum at 5 mg/kg, ip pretreated for 1 hr followed by bacteria addition and further treated with 3 doses of compound every 4 hrs relative to control; assay type: functional; set-up: scale not given: the % may be the effect or the level left; settings: time 9 hrs
[28] = tested on: Escherichia coli; experiment: as §1, with “infiltrated […] in lung” for “endotoxin level”, “by H and E staining based light microscopic analysis” for “relative to control”; assay type: functional, organism-based; settings: time 9.0 hrs

SMILES: C[C@@H](c1ccccc1)N(CC(=O)N(CCCCN)CC(=O)N(CCc1c[nH]c2ccccc12)CC(=O)N(CCc1c[nH]c2ccccc12)CC(N)=O)C(=O)CN(CCCCN)C(=O)CN(CCCCN)C(=O)CN(C(=O)CN(C(=O)CN(CCCCN)C(=O)CN(C(=O)CN(C(=O)CN(CCCCN)C(=O)[C@H](Cc1c[nH]cn1)NC(=O)CNC(=O)CN)[C@@H](C)c1ccccc1)[C@@H](C)c1ccccc1)[C@@H](C)c1ccccc1)[C@@H](C)c1ccccc1 (H-GGH[Nlys][Nspe][Nspe][Nlys][Nspe][Nspe][Nlys][Nlys][Nspe][Nlys][Gly(N(CH2)2(3-indolyl))][Gly(N(CH2)2(3-indolyl))]-NH2)
- MIC [1]: 6.3 µM (≈ 13.3 µg/mL)
- MIC [2]: 12.5 µM (≈ 26.4 µg/mL)
- HC10 [3]: > 100 µM
- HC50 at 1 h [4]: > 100 µM
- LC50 [5]: 39.5 µM
- MIC [6]: 12.5 µM (≈ 26.4 µg/mL)
- MIC [7]: 12.5 µM (≈ 26.4 µg/mL)
- MIC [8]: 3.1 µM (≈ 6.56 µg/mL)
- MIC [9]: > 25 µM
- Activity [10]: Dose-Dependent Effect
- Activity [11]: Active
- Activity [12]: Active
- Activity [13]: Active
- Activity [14]: Active
- MBC [15]: 12.5 µM (≈ 26.4 µg/mL)
- MIC [15]: 6.3 µM (≈ 13.3 µg/mL)
- Activity [16]: Active
- viability at 24 h, 10 µM [17]: 94.5%
- viability at 24 h, 20 µM [18]: 74.1%
- Activity [19]: 99.3%
- Activity [20]: 36%
- inhibition [21]: 84.3%
- Activity [22]: Non-Toxic
- Survival [23]: > 96 h
- Activity [24]: 44.3%
- Activity [25]: 42.8%
- Activity [26]: 48.3%
- Activity [27]: 51.1%
- Activity [28]: Active
